# Results reported in patent publication US7067261B2 (priority 2001, dated 2006).
# Key:
# [1] = test system: poly-(ADP-ribose)polymerase (PARP); type: cell-based, rat
# JAK2 = type: cell-based
# PC12 cells = type: cell-based, rat
# caspase 3 = type: cell-based, rat
# muscle subtype α1β1γδ = muscle subtype α1β1γδ (Homo sapiens, UniProt P02708+P07510+Q07001); type: cell-based
# Akt = type: cell-based, rat
# PI-3 kinase = type: cell-based, rat
# α4β2 = α4β2 (Homo sapiens, UniProt P17787+P43681); type: cell-based
# ganglionic subtype α3β4 = ganglionic subtype α3β4 (Homo sapiens, UniProt P30926+P32297); type: cell-based
# α7 nAChR = α7 nAChR (Homo sapiens, UniProt P36544); type: cell-based
# α3β2 = α3β2 (Homo sapiens, UniProt P17787+P32297); type: cell-based
# α7 = α7 (Homo sapiens, UniProt P36544); test: biochemical; type: binding
# [2] = test system: Reserpine-Induced Dopamine Depletion—Mice; settings: mouse, in vivo; cited from earlier work
# [3] = test system: 6-OHDA (Partial Lesion)—Rats; settings: rat, in vivo, sc, 1 mg/kg; cited from earlier work
# [4] = molecular target: complex formation between Aβ(1–42) and α7-nAChR (Rattus norvegicus, UniProt Q05941); type: cell-based
# MPTP effects, Mice = settings: mouse, in vivo; cited from earlier work
# [5] = molecular target: JAK2 complex formation with the α7 receptor (Rattus norvegicus, UniProt Q05941)
# [6] = test system: methamphetamine toxicity in mice; settings: mouse, in vivo; cited from earlier work
# Chain of complex formation between Aβ(1–42) and α7-nAChR (Q05941 23-502, one chain of several): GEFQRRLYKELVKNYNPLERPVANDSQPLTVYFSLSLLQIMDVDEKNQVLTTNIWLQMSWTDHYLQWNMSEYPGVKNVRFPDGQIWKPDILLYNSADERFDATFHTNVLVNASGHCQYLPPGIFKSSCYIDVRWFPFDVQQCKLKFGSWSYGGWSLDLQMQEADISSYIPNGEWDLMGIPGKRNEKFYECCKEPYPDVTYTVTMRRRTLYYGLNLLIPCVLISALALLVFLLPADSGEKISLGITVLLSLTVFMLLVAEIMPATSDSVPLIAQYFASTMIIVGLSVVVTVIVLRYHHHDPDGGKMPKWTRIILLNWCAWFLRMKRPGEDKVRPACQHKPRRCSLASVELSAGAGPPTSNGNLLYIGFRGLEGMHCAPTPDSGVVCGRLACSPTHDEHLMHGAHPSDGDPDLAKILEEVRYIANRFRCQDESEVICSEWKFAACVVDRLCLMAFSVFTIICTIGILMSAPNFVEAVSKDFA
# Chain of α7 (P36544 23-502): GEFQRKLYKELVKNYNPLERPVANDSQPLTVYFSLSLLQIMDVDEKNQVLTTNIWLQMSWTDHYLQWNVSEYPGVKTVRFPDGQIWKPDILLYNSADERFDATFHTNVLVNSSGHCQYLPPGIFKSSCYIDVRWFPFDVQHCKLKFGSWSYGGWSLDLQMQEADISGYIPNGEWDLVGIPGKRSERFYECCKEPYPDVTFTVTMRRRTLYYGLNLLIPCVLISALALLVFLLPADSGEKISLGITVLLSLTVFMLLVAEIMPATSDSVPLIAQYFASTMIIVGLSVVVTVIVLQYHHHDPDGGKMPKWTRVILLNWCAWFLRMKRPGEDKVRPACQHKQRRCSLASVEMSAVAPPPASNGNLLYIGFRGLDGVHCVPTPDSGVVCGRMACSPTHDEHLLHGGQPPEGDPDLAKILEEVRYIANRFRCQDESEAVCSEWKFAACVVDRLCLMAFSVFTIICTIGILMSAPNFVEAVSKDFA
# Chain of α7 nAChR (P36544 23-502): as above
# Chain of α4β2 (P43681 29-627): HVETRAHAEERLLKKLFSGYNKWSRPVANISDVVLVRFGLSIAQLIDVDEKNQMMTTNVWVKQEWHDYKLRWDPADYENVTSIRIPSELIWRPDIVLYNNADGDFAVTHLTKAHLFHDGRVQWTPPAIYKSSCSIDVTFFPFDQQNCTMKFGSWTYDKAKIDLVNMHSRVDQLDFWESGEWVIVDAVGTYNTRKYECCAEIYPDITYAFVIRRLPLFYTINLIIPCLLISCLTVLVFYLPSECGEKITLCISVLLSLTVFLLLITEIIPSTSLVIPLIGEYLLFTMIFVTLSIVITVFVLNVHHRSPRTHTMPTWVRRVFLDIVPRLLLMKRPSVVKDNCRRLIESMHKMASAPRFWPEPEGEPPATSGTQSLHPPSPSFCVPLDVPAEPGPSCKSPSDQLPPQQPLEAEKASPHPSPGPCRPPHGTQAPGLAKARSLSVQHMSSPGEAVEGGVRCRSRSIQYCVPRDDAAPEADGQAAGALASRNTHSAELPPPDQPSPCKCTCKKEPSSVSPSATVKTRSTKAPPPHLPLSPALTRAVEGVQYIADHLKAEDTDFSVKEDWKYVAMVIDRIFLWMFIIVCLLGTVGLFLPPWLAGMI
# Chain of α4β2 (P17787 26-502): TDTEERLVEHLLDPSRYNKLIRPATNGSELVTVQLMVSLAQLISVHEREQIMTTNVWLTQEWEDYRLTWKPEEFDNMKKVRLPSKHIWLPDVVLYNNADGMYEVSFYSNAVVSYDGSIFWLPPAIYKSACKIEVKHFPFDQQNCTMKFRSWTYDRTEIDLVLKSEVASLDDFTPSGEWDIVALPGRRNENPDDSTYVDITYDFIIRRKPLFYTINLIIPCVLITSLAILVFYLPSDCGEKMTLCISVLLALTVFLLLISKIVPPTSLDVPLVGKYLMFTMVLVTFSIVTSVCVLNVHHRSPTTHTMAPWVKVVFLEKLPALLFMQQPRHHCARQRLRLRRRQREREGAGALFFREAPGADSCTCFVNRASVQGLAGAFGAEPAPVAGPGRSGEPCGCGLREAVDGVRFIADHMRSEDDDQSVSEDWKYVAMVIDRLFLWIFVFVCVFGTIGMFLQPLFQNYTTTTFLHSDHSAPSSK
# Chain of JAK2 complex formation with the α7 receptor (Q05941 23-502): as the sequence (Q05941 23-502, one chain of several) above
# Chain of JAK2 complex formation with the α7 receptor (Q62689 whole entry, further chain): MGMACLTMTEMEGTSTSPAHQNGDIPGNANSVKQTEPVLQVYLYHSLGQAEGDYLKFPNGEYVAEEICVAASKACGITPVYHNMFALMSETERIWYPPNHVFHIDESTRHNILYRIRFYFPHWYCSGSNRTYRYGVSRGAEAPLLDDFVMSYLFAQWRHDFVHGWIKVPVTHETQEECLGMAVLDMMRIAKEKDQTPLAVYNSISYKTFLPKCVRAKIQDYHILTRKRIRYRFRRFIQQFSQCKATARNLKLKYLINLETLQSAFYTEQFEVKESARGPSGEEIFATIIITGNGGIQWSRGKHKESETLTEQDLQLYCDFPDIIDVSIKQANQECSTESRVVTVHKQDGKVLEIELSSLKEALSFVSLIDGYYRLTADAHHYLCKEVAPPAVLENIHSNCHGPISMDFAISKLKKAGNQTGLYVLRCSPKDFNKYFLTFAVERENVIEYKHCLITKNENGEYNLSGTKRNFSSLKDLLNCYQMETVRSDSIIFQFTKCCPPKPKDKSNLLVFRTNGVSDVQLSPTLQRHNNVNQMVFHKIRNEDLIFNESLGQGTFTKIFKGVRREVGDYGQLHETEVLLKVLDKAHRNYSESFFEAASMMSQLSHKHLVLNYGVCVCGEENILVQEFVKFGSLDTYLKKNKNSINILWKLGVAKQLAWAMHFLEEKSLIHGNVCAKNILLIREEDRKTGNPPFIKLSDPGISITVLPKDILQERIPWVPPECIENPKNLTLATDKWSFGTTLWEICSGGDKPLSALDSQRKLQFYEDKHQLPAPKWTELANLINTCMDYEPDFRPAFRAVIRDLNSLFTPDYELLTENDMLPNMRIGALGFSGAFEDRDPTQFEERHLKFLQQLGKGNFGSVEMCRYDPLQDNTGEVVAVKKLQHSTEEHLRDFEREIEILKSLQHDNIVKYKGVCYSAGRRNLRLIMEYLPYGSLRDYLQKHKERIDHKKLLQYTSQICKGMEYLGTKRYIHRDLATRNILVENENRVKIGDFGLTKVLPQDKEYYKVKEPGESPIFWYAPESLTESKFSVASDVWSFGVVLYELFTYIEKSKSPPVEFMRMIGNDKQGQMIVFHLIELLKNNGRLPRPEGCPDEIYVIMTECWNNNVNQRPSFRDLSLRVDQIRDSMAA
# Chain of α3β2 (P32297 32-505): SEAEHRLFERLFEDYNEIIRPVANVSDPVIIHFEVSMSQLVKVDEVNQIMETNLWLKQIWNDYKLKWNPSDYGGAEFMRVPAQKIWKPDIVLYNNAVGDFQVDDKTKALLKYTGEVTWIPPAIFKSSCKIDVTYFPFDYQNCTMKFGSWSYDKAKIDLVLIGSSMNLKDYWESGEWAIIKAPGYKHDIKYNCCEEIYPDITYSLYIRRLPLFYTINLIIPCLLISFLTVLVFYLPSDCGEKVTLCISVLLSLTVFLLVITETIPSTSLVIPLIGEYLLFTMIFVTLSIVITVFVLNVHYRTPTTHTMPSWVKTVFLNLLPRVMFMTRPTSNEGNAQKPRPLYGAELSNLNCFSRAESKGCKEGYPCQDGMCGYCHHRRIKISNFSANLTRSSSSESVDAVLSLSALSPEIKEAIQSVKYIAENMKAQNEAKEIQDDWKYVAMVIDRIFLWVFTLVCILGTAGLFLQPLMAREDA
# Chain of α3β2 (P17787 26-502): as the sequence (P17787 26-502) above
# Chain of ganglionic subtype α3β4 (P32297 32-505): as the sequence (P32297 32-505) above
# Chain of ganglionic subtype α3β4 (P30926 22-498): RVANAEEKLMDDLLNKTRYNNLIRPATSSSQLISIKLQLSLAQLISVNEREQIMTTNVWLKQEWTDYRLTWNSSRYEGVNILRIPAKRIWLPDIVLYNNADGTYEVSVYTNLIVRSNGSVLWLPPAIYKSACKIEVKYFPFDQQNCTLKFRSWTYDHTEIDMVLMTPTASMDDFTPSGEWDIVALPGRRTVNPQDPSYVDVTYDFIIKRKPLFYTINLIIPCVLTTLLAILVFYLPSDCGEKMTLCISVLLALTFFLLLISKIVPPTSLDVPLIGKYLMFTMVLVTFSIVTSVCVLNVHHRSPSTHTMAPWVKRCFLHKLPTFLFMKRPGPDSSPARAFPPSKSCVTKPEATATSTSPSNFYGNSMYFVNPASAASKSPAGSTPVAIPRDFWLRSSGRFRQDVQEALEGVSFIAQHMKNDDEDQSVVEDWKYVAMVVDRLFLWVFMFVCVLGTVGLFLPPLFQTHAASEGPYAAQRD
compound,measurement,setting,value
"Ang II (DRVYIHPF; Angiotensin-2; UniProt P01019 25-32, looked up)",PARP cleavage / induction,[1],nicotine-insensitive PARP induction
same,effect of preincubation on nicotine-induced tyrosine phosphorylation of JAK2,JAK2,blocks
same,PC12 cell number,PC12 cells,significantly reduced
same,effect on nicotine-induced neuroprotection (cell viability),PC12 cells,complete reversal
Aβ(1–42),PARP cleavage / induction,[1],cleaved
same,caspase 3 activity,caspase 3,significant increase
same,PC12 cell number,PC12 cells,significant decrease
"c1cncc(C2CCC3CCN2CC3)c1 (stereo not shown) [TC-1698, 2-Pyridin-3-yl-1-aza-bicyclo[3.2.2]nonane]",activation of muscle subtype α1β1γδ,muscle subtype α1β1γδ,does not activate
same,activation of Akt,Akt,activation
same,activation of PI-3 Kinase,PI-3 kinase,activation
same,activation of neuronal subtype α4β2,α4β2,does not activate
same,activation of ganglionic subtype α3β4,ganglionic subtype α3β4,does not activate
same,potency in activating α7 nAChR relative to acetylcholine,α7 nAChR,50 fold
same,activation of neuronal subtype α3β2,α3β2,does not activate
same,phosphorylation of Jak-2,JAK2,induces phosphorylation of Jak-2
same,Ki,α7,0.8 nM
C[N+](C)(C)CCCCCC[N+](C)(C)C [hexamethonium],effect on NIC blockade of reserpine-induced dopamine depletion,[2],not
CNC1(C)C2CCC(C2)C1(C)C (stereo not shown) [mecamylamine],effect on NIC blockade of reserpine-induced dopamine depletion,[2],blocked
CN1CCCC1c1cccnc1 (stereo not shown) [nicotine],dopaminergic neurotoxicity (loss of striatal dopamine) induced by 6-OHDA,[3],attenuates
same,effect on co-immunoprecipitation (complex formation) of Aβ(1–42) and α7-nAChR,[4],blocked
same,striatal MPP+ levels induced by MPTP,"MPTP effects, Mice",reduces
same,time to association of JAK2 with the α7 receptor,[5],≤ 5 min
same,methamphetamine toxicity (brain levels),[6],prevents
same,effect on Aβ(1–42)-induced activation of caspase 3,"caspase 3; PC12 cells, nicotine 10 μM, Aβ(1–42) 100 nM, P<0.01",blocked
same,reserpine-induced dopamine depletion,[2],blocked
same,time to JAK2 tyrosine phosphorylation,JAK2,5 to 10 min
same,effect on Ang II-induced apoptosis (cell number),"PC12 cells; PC12 cells, Ang II 100 nM, 8 hours",not affected
same,effect on Aβ(1–42)-induced cell death when co-incubated with AG-490,"PC12 cells; PC12 cells, Aβ(1–42) 100 nM, 8 hours",no effect
same,effect on cell death induced by Aβ(1–42),"PC12 cells; PC12 cells, Aβ(1–42) 100 nM, 8 hours, P<0.01",significantly reduced
N#C/C(=C/c1ccc(O)c(O)c1)C(=O)NCc1ccccc1 [AG-490],effect on co-immunoprecipitation (complex formation) of Aβ(1–42) and α7-nAChR,[4],prevented
same,effect on TC-1698-induced activation of Akt,Akt,suppression of activation
same,effect on nicotine-induced serine phosphorylation of Akt,Akt,inhibits
same,effect on TC-1698-induced activation of PI-3 Kinase,PI-3 kinase,suppression of activation
same,effect on nicotine-induced tyrosine phosphorylation of PI-3K,PI-3 kinase,inhibits
same,effect on nicotine inhibition of Aβ(1–42)-induced caspase 3 activation,caspase 3,prevented
same,effect on TC-1698-induced activation of JAK2,JAK2,suppression of activation
same,effect on basal and nicotine-stimulated JAK2 tyrosine phosphorylation,JAK2,inhibits
